Experimental data from the supplement of paper PMC10307832.

Assays:
Experiment in all cases: relative viability (nuclei count vs DMSO), 5 days (fraction); higher = more cells survive
[1] = compound: CC(C)(C)c1nc(-c2cccc(NS(=O)(=O)c3c(F)cccc3F)c2F)c(-c2ccnc(N)n2)s1 [Dabrafenib] + COc1cc2c(Oc3ccc(NC(=O)C4(C(=O)Nc5ccc(F)cc5)CC4)cc3F)ccnc2cc1OCCCN1CCOCC1 [Foretinib] (partner 0.25 µM)
Outline: (§1)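 For relative viability, nuclei counts in treated wells were divided by those in vehicle wells. Lung cancer cell lines had been pin-tool dosed in 1536-well plates the day after seeding and cultured for 5 days, then fixed and stained in one step (final 0.05% Triton X-100, 1% formaldehyde, 1 ug/ml Hoechst) and imaged at 4×. Doses were one drug alone or a fixed anchor-drug dose plus five library-drug doses (not always all listed) in √10 steps, and values are duplicate-plate medians.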

[2] = compound: NC(=O)c1ccc(N(C(N)=O)c2c(F)cccc2F)nc1-c1ccc(F)cc1F [VX-702] + CC(=O)Nc1cccc(-n2c(=O)n(C3CC3)c(=O)c3c(Nc4ccc(I)cc4F)n(C)c(=O)c(C)c32)c1 [Trametinib] (partner 0.02 µM)
Outline: as §1

[3] = compound: CC(C)(C)c1nc(-c2cccc(NS(=O)(=O)c3c(F)cccc3F)c2F)c(-c2ccnc(N)n2)s1 [Dabrafenib] + O=C(CCCCCCC(=O)Nc1ccccc1)NO [Vorinostat] (partner 1 µM)
Outline: as §1

[4] = compound: NC(=O)c1ccc(N(C(N)=O)c2c(F)cccc2F)nc1-c1ccc(F)cc1F [VX-702] + CC1(C)CCC(c2ccc(Cl)cc2)=C(CN2CCN(c3ccc(C(=O)NS(=O)(=O)c4ccc(N[C@H](CCN5CCOCC5)CSc5ccccc5)c(S(=O)(=O)C(F)(F)F)c4)cc3)CC2)C1 [Navitoclax] (partner 0.5 µM)
Outline: as §1

Row | Cell Line | relative viability ([1]; first compound 0.009487 µM) | relative viability ([1]; first compound 0.03 µM) | relative viability ([1]; first compound 0.09487 µM) | relative viability ([1]; first compound 0.3 µM) | relative viability ([2]; first compound 0.02 µM) | relative viability ([2]; first compound 0.2 µM) | relative viability ([2]; first compound 0.6325 µM) | relative viability ([2]; first compound 2 µM) | relative viability ([3]; first compound 0.003 µM) | relative viability ([3]; first compound 0.009487 µM) | relative viability ([3]; first compound 0.03 µM) | relative viability ([3]; first compound 0.09487 µM) | relative viability ([3]; first compound 0.3 µM) | relative viability ([4]; first compound 0.02 µM) | relative viability ([4]; first compound 0.2 µM) | relative viability ([4]; first compound 0.6325 µM) | relative viability ([4]; first compound 2 µM) | relative viability ([1]; first compound 0.003 µM)
1 | A-427 | 1.24 | 1.14 | 0.87 | 1.01 | 0.752 | 0.707 | 0.687 | 0.724 | 0.793 | 0.962 | 0.787 | 0.762 | 0.866 | 0.877 | 0.919 | 0.905 | 0.962 | –
2 | NCI-H3122 | 0.959 | 0.935 | 0.904 | 0.97 | 0.24 | 0.201 | 0.206 | 0.203 | 0.978 | 0.966 | 0.916 | 0.991 | 1.02 | 1.07 | 1.05 | 1.04 | 1.02 | 1.04
3 | PC-14 | 0.972 | 0.933 | 0.979 | 0.958 | 0.781 | 0.693 | 0.825 | 0.925 | – | 0.829 | 0.737 | 0.757 | 0.73 | 1.06 | 1.01 | 1.04 | 1.03 | 0.861
4 | NCI-H1915 | 1.08 | 1.09 | 0.87 | 0.949 | 0.324 | 0.294 | 0.302 | 0.319 | 0.544 | 0.576 | 0.414 | 0.219 | 0.206 | 0.766 | 0.725 | 0.849 | 0.916 | 1.2
5 | NCI-H1793 | 0.93 | – | – | 0.598 | 0.438 | – | 0.452 | 0.451 | – | 1.12 | – | 0.877 | 0.873 | 0.601 | 0.405 | 0.497 | 0.542 | –
6 | NCI-H1650 | 1.3 | 0.895 | 1.45 | 1.71 | 0.599 | 0.725 | 0.656 | 0.501 | 0.547 | 0.528 | 0.711 | 0.608 | 0.659 | 1.1 | 1.16 | 1.43 | 1.31 | 1.03
7 | CAL-12T | 1.09 | 1.11 | 1.11 | 1.44 | 0.368 | 0.371 | 0.321 | 0.329 | 1.06 | 0.581 | 0.804 | 0.679 | 0.795 | 1.22 | 1.18 | 1.3 | 1.35 | 1.07
8 | HCC-15 | 1.07 | 1.08 | 0.852 | 1.03 | 0.345 | 0.364 | 0.322 | 0.294 | 0.862 | 0.844 | 0.825 | 0.768 | 0.896 | 0.691 | 0.648 | 0.656 | 0.699 | 0.944
9 | LC-2-ad | 1.09 | 0.82 | 0.922 | 1.1 | 0.948 | 0.916 | 0.921 | 0.97 | 0.74 | 0.736 | 0.73 | 0.613 | 0.686 | 0.467 | 0.565 | 0.475 | 0.561 | –
